From patent US20240398781A1, “SPIROCYCLIC CYCLIC MODULATORS OF CHOLESTEROL BIOSYNTHESIS AND THEIR USE FOR PROMOTING REMYELINATION” (GENENTECH, INC., priority 2021, published 2024)

Columns and labels:
[1] = target: human emopamil binding protein and human 7-dehydrocholesterol reductase co-expressing cells (hEBP-DHCR7 membrane) (Homo sapiens (Human), UniProt Q15125); test: Radioligand filter binding assay on hEBP-DHCR7 membrane; settings: [3H]-(S)-6-(2-Methyl-3-(6-(trifluoromethyl)pyridin-3-yl)propyl)-2-thia-6-azaspiro[3.4]octane 2,2-dioxide radioligand, HEK293 membrane co-expressing hEBP and hDHCR7
Method: Membrane Preparation: human emopamil binding protein and human 7-dehydrocholesterol reductase co-expressing cells were generated by transient transfecting host human embryonic kidney (HEK) 293 cells with 2 DNA constructs containing each protein's coding sequence. Cells were suspension cultured at 37° C. with 5% CO2 in […] 293 Expression Medium (Thermofisher). Whole cell membrane was prepared by harvesting the cell pellet, adding cold membrane buffer (50 mM Tris, pH7.5, lx Roche COMPLETE EDTA-free protease inhibitor cocktail) 10 times volume of the cell pellets weight, lysing cell pellet on ice by using Dounce homogenizer, spinning at 200 g 4° C. for 15 min, collecting supernatant and spinning again at 25000 g 4° C. for 50 min, transferring pellet to Dounce homogenizer, re-suspending pellet by homogenizing in membrane buffer on ice to reach ˜25 mg/mL, then keeping whole cell membrane aliquots at −80° C.
Compounds were prepared in a 96-well U bottom plate using an Echo550 machine and 10 mM compound DMSO stock solution, followed by an 8-dose 5-fold serial dilutions protocol with final testing compound concentration ranging from 0.06 to 5000 nM, with DMSO back fill to 100 nL/well and n=2. […] The UniFilter-96 GF/B plates were pre-treated by adding 50 μl/well of 0.3% (v/v) PEI to UniFilter-96 GF/B plates. The plates were sealed and incubated at 4° C. for 3 hrs. Then, the plates were washed with ice-cold assay buffer 3 times. The radioligand binding assay was prepared by adding assay buffer diluted hEBP-DHCR7 membrane at 66.7 μg/ml×150 μl/well into the 96-well compound plate to reach 10 μg membrane per well. Then, the assay buffer diluted [3H]—(S)-6-(2-Methyl-3-(6-(trifluoromethyl)pyridin-3-yl)propyl)-2-thia-6-azaspiro[3.4] octane 2,2-dioxide was added at 25 nM×50 μl/well. Following this, the plate was centrifuged at 1000 rpm for 30 secs. The plate was then sealed and agitated at 600 rpm at 22° C. for 5 min, and then incubated at 22° C. for 3 hrs. The incubation was stopped by transferring the binding solution to the pre-treated UniFilter-96 GF/B plate, vacuum filtrated, and then washed four times with ice-cold assay buffer. Following this, the plates were dried at 37° C. for 45 min. The plates were then sealed at the bottom. 40 μl/well of scintillation cocktail was added to the plates. A MicroBeta2 microplate counter was then used to read the plate and analyze the data. For reference and test compounds, the results are expressed as % Inhibition, using the normalization equation: N=100−100×(U−C2)/(C1−C2), where U is the unknown value, C1 is the average of high controls, and C2 is the average value of low controls. The IC50 was determined by fitting percentage of inhibition as a function of compound concentrations with Hill equation using XLfit. Results are expressed as hEBP-DHCR7 Ki (uM) in Table 4. Ki was calculated as described above. The asterix (*) indicates an isolated isomer or isolated group of isomers, but that the stereochemistry has not been assigned.

[2] = test system: EBP (zymostenol accumulation in EpiSC-derived OPCs); test: GC/MS-based sterol profiling, zymostenol accumulation in OPCs; type: cell-based, mouse; settings: Mus musculus, 24 h, EpiSC-derived OPCs, 24 hr treatment, 8 doses from 0.15 nM to 333 nM; read-out: Zymostenol GCMS EC50
Method: To assess effects of treatments on OPCs, all treatments were assayed in two or more independent platings of epiblast stem cell-derived OPCs ([…]-derived OPCs were obtained using in vitro differentiation protocols and culture conditions described previously (Najm et al, 2011, Nature Methods). OPCs were expanded and frozen down in aliquots. OPCs were thawed into growth conditions for at least one passage before use in further assays. Sterols were monitored using a modified Folch wash protocol (Hubler et al, 2018, Nature). EpiSC-derived OPCs were plated at 100,000 cells per well in PO- and laminin-coated 96-well plates in N2B27 media without growth factors. After 24 hours, cells were rinsed with saline and plates were frozen. Cholesterol-d7 standard was then added to each well before drying under nitrogen stream and derivatization with 55 μl of bis(trimethylsilyl) trifluoroacetamide. After derivatization, 2 μl were analyzed by gas chromatography/mass spectrometry using an Agilent 5973 Network Mass Selective Detector equipped with a 6890 gas chromatograph system and a HP-5MS capillary column (30 m×0.25 mm×0.25 mm). Samples were analyzed in full scan mode using electron impact ionization; ion fragment peaks were integrated to calculate sterol abundance, and quantitation was relative to cholesterol-d7. […] All standards were obtained from Avanti Polar Lipids unless otherwise indicated. Calibration curves were generated by injecting varying concentrations of sterol standards and maintaining a fixed amount of cholesterol-D7. For normalized zymostenol accumulation results, the total amount of zymostenol measured after drug treatment was divided by the total amount of zymostenol accumulated after 24 hr treatment with 100 nM positive control reference.

human emopamil binding protein and human 7-dehydrocholesterol reductase co-expressing cells (hEBP-DHCR7 membrane), sequence (Q15125 whole entry): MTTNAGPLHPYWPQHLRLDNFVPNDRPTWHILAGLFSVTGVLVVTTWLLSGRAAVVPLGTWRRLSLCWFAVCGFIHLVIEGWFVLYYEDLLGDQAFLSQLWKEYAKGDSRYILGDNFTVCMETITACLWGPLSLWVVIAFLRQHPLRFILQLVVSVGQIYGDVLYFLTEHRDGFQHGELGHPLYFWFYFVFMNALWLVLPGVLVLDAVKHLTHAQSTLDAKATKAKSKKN

SMILES	Ki [1]	EC50 [2]
O=S1(=O)CC2(CCN([C@H]3CC[C@@H](c4cnc(C(F)(F)F)c(F)c4)CC3)C2)C1 [Compound 72B, 6-((1s,4s)-4-(5-fluoro-6-(trifluoromethyl)pyridin-3-yl)cyclohexyl)-2-thia-6-azaspiro[3.4]octane 2,2-dioxide]	26 nM	59 nM
O=S1(=O)CC[C@@]2(CCCN([C@H]3CC[C@H](c4cc(C(F)(F)F)nn4C4CC4)CC3)C2)C1 (single isomer, unassigned) [69B*]	35 nM	23 nM
O=S1(=O)CC2(CCN([C@H]3CC[C@H](c4ccc(C(F)F)nc4)CC3)C2)C1 [Compound 67, 6-((1r,4r)-4-(6-(difluoromethyl)pyridin-3-yl)cyclohexyl)-2-thia-6-azaspiro[3.4]octane 2,2-dioxide]	180 nM	30 nM
O=S1(=O)CC2(CCN([C@H]3CC[C@H](c4cncc(C(F)(F)F)c4)CC3)C2)C1 [Compound 63A, 6-((1r,4r)-4-(5-(trifluoromethyl)pyridin-3-yl)cyclohexyl)-2-thia-6-azaspiro[3.4]octane 2,2-dioxide]	75 nM	12 nM
CC(C)n1nc(C(F)(F)F)cc1[C@H]1CC[C@H](N2CCC[C@@]3(CCS(=O)(=O)C3)C2)CC1 (single isomer, unassigned) [91B*]	310 nM	60 nM
O=S1(=O)CC2(CCN([C@H]3CCC[C@@H](c4ccc(C(F)(F)F)nc4)C3)C2)C1 (single isomer, unassigned) [54C*]	347 nM	> 330 nM
O=S1(=O)CC2(CCN([C@H]3CC[C@H](c4ncc(C(F)(F)F)cc4F)CC3)CC2)C1 [Compound 80A, 7-((1r,4r)-4-(3-Fluoro-5-(trifluoromethyl)pyridin-2-yl)cyclohexyl)-2-thia-7-azaspiro[3.5] nonane 2,2-dioxide]	67 nM	11 nM
CC(C)[C@H]1CC(N2CCC3(C2)CS(=O)(=O)C3)CCN1c1ccc(C(F)(F)F)nc1 (stereo in doubt) [82C*, 6-((2R,4S)-2-isopropyl-1-(6-(trifluoromethyl)pyridin-3-yl)piperidin-4-yl)-2-thia-6-azaspiro[3.4]octane 2,2-dioxide]	36 nM	> 330 nM
O=S1(=O)CCC2(CCN([C@H]3CC[C@@H](c4ccc(C(F)(F)F)cn4)CC3)C2)CC1 [84A*, 2-((1r,4r)-4-(5-(Trifluoromethyl)pyridin-2-yl)cyclohexyl)-8-thia-2-azaspiro[4.5]decane 8,8-dioxide]	310 nM	100 nM
O=S1(=O)CC2(CCN([C@@H]3CCC[C@H](c4ccc(C(F)(F)F)nc4)C3)C2)C1 (single isomer, unassigned) [54A*]	21 nM	61 nM
O=S1(=O)CC2(CCN([C@H]3CC[C@@H](c4cccc(C(F)(F)F)n4)CC3)C2)C1 [Compound 62A, 6-((1s,4s)-4-(6-(trifluoromethyl)pyridin-2-yl)cyclohexyl)-2-thia-6-azaspiro[3.4]octane 2,2-dioxide]	23 nM	45 nM
O=S1(=O)CC2(CCN([C@H]3CC[C@@H](c4ncc(C(F)(F)F)cc4Cl)CC3)C2)C1 [Compound 48B, 6-((1s,4s)-4-(3-chloro-5-(trifluoromethyl)pyridin-2-yl)cyclohexyl)-2-thia-6-azaspiro[3.4]octane 2,2-dioxide]	9.6 nM	14 nM
O=S1(=O)CC2(CCN([C@H]3CC[C@@H](c4ccnc(C(F)(F)F)c4)CC3)C2)C1 [Compound 60B, 6-((1s,4s)-4-(2-(trifluoromethyl)pyridin-4-yl)cyclohexyl)-2-thia-6-azaspiro[3.4]octane 2,2-dioxide]	21 nM	85 nM
CC(C)n1nc(C(F)(F)F)cc1[C@H]1CCC[C@@H](N2CCC3(C2)CS(=O)(=O)C3)C1 (single isomer, unassigned) [61B*]	23 nM	100 nM
O=S1(=O)CC2(CCN([C@H]3CC[C@H](c4ccnc(C(F)(F)F)c4)CC3)CC2)C1 [Compound 90B, 7-((1r,4r)-4-(2-(trifluoromethyl)pyridin-4-yl)cyclohexyl)-2-thia-7-azaspiro[3.5]nonane 2,2-dioxide]	1290 nM	42 nM
CC(C)(C)n1nc(C(F)(F)F)cc1[C@H]1CC[C@H](N2CCC3(CC2)CS(=O)(=O)C3)CC1 [Compound 85A, 7-((1r,4r)-4-(1-(tert-Butyl)-3-(trifluoromethyl)-1H-pyrazol-5-yl)cyclohexyl)-2-thia-7-azaspiro[3.5]nonane 2,2-dioxide]	15 nM	8.1 nM
O=S1(=O)CC2(CCN([C@H]3CCCN(c4ccc(C(F)(F)F)nc4)C3)C2)C1 (single isomer, unassigned) [66B*]	61 nM	12 nM
O=S1(=O)CC2(CCN([C@H]3CC[C@@H](c4ccc(F)c(F)c4)CC3)C2)C1 [Compound 70B, 6-((1s,4s)-4-(3,4-difluorophenyl)cyclohexyl)-2-thia-6-azaspiro[3.4]octane 2,2-dioxide]	6.7 nM	19 nM
